Measurements taken from patent US9156845B2, “4-(substituted amino)-7H-pyrrolo[2,3-d] pyrimidines as LRRK2 inhibitors” (Pfizer Inc., priority 2012, dated 2015).
Where two headings read alike, the source gives them in different places.

Experiments:
PIK3CB = PIK3CB (Homo sapiens (Human), UniProt P42338); experiment: ActivX kinase probe assay (human PBMC); format: binding; settings: PIK3CB, read-out: percent inhibition
CDC2 = CDC2 (Homo sapiens (Human), UniProt P06493); experiment: ActivX kinase probe assay (human PBMC); format: binding; settings: CDC2, read-out: percent inhibition
RSKL1 domain1 = RSKL1 domain1 (Homo sapiens (Human), UniProt Q96S38); experiment: ActivX kinase probe assay (human PBMC); format: binding; settings: RSKL1 domain1, read-out: percent inhibition
LYN = LYN (Homo sapiens (Human), UniProt P07948); experiment: ActivX kinase probe assay (human PBMC); format: binding; settings: LYN, read-out: percent inhibition
PIP4K2C = PIP4K2C (Homo sapiens (Human), UniProt Q8TBX8); experiment: ActivX kinase probe assay (human PBMC); format: binding; settings: read-out: percent inhibition
IRE1 = IRE1 (Homo sapiens (Human), UniProt O75460); experiment: ActivX kinase probe assay (human PBMC); format: binding; settings: IRE1, read-out: percent inhibition
AKT1 = AKT1 (Homo sapiens (Human), UniProt P31749); experiment: ActivX kinase probe assay (human PBMC); format: binding; settings: AKT1, read-out: percent inhibition
MAST3 = MAST3 (Homo sapiens (Human), UniProt O60307); experiment: ActivX kinase probe assay (human PBMC); format: binding; settings: MAST3, read-out: percent inhibition
HPK1 = HPK1 (Homo sapiens (Human), UniProt Q92918); experiment: ActivX kinase probe assay (human PBMC); format: binding; settings: HPK1, read-out: percent inhibition
JAK2 domain2 = JAK2 domain2 (Homo sapiens (Human), UniProt O60674); experiment: ActivX kinase probe assay (human PBMC); format: binding; settings: JAK2 domain2, read-out: percent inhibition
SMG1 = SMG1 (Homo sapiens (Human), UniProt Q96Q15); experiment: ActivX kinase probe assay (human PBMC); format: binding; settings: SMG1, read-out: percent inhibition
ACK = ACK (Homo sapiens (Human), UniProt Q07912); experiment: ActivX kinase probe assay (human PBMC); format: binding; settings: ACK, read-out: percent inhibition
MARK3 = MARK3 (Homo sapiens (Human), UniProt P27448); experiment: ActivX kinase probe assay (human PBMC); format: binding; settings: MARK3, read-out: percent inhibition
PCTAIRE2, PCTAIRE3 = experiment: ActivX kinase probe assay (human PBMC); format: binding
[1] = target: GST-tagged truncated LRRK2 (Homo sapiens (Human), UniProt Q5S007); experiment: LRRK2 Lantha Screen kinase assay; format: biochemical; settings: geometric mean of 2-5 determinations unless otherwise indicated (a: >=6 determinations; b: single determination); read-out: LRRK2 WT IC50
IKKe = IKKe (Homo sapiens (Human), UniProt Q14164); experiment: ActivX kinase probe assay (human PBMC); format: binding; settings: IKKe, read-out: percent inhibition
FGR = FGR (Homo sapiens (Human), UniProt P09769); experiment: ActivX kinase probe assay (human PBMC); format: binding; settings: FGR, read-out: percent inhibition
JAK1 = JAK1 (Homo sapiens (Human), UniProt P23458); experiment: ActivX kinase probe assay (human PBMC); format: binding; settings: JAK1, read-out: percent inhibition
PIK3C3 = PIK3C3 (Homo sapiens (Human), UniProt Q8NEB9); experiment: ActivX kinase probe assay (human PBMC); format: binding; settings: PIK3C3, read-out: percent inhibition
IKKb = IKKb (Homo sapiens (Human), UniProt O14920); experiment: ActivX kinase probe assay (human PBMC); format: binding; settings: IKKb, read-out: percent inhibition
Wnk1, Wnk2, Wnk4 = experiment: ActivX kinase probe assay (human PBMC); format: binding
AMPKa1, AMPKa2 = experiment: ActivX kinase probe assay (human PBMC); format: binding
PIP5K3 = PIP5K3 (Homo sapiens (Human), UniProt Q9Y2I7); experiment: ActivX kinase probe assay (human PBMC); format: binding; settings: PIP5K3, read-out: percent inhibition
[2] = tested on: ZC1/HGK, ZC2/TNIK, ZC3/MINK; experiment: ActivX kinase probe assay (human PBMC); format: binding
TAO1, TAO3 = experiment: ActivX kinase probe assay (human PBMC); format: binding
AMPKa1 = AMPKa1 (Homo sapiens (Human), UniProt Q13131); experiment: ActivX kinase probe assay (human PBMC); format: binding; settings: AMPKa1, read-out: percent inhibition
CaMK1a = CaMK1a (Homo sapiens (Human), UniProt Q14012); experiment: ActivX kinase probe assay (human PBMC); format: binding; settings: CaMK1a, read-out: percent inhibition
STLK5 = STLK5 (Homo sapiens (Human), UniProt Q7RTN6); experiment: ActivX kinase probe assay (human PBMC); format: binding; settings: STLK5, read-out: percent inhibition
MLKL = MLKL (Homo sapiens (Human), UniProt Q8NB16); experiment: ActivX kinase probe assay (human PBMC); format: binding; settings: MLKL, read-out: percent inhibition
PITSLRE = experiment: ActivX kinase probe assay (human PBMC); format: binding
IKKa = IKKa (Homo sapiens (Human), UniProt O15111); experiment: ActivX kinase probe assay (human PBMC); format: binding; settings: IKKa, read-out: percent inhibition
MAP2K3 = MAP2K3 (Homo sapiens (Human), UniProt P46734); experiment: ActivX kinase probe assay (human PBMC); format: binding; settings: MAP2K3, read-out: percent inhibition
IKKe, TBK1 = experiment: ActivX kinase probe assay (human PBMC); format: binding
IRAK1 = IRAK1 (Homo sapiens (Human), UniProt P51617); experiment: ActivX kinase probe assay (human PBMC); format: binding; settings: read-out: percent inhibition

Chain of MAP2K3 (P46734 whole entry): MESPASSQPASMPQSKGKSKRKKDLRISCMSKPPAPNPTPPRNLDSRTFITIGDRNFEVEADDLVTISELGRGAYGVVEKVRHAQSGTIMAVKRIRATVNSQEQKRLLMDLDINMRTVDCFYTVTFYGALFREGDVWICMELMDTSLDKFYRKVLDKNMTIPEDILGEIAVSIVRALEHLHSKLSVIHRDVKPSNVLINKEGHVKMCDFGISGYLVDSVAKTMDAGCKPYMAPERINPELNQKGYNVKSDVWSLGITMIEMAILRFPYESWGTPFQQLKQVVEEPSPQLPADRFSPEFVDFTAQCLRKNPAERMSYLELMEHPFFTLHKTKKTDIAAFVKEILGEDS
Chain of MAST3 (O60307 whole entry): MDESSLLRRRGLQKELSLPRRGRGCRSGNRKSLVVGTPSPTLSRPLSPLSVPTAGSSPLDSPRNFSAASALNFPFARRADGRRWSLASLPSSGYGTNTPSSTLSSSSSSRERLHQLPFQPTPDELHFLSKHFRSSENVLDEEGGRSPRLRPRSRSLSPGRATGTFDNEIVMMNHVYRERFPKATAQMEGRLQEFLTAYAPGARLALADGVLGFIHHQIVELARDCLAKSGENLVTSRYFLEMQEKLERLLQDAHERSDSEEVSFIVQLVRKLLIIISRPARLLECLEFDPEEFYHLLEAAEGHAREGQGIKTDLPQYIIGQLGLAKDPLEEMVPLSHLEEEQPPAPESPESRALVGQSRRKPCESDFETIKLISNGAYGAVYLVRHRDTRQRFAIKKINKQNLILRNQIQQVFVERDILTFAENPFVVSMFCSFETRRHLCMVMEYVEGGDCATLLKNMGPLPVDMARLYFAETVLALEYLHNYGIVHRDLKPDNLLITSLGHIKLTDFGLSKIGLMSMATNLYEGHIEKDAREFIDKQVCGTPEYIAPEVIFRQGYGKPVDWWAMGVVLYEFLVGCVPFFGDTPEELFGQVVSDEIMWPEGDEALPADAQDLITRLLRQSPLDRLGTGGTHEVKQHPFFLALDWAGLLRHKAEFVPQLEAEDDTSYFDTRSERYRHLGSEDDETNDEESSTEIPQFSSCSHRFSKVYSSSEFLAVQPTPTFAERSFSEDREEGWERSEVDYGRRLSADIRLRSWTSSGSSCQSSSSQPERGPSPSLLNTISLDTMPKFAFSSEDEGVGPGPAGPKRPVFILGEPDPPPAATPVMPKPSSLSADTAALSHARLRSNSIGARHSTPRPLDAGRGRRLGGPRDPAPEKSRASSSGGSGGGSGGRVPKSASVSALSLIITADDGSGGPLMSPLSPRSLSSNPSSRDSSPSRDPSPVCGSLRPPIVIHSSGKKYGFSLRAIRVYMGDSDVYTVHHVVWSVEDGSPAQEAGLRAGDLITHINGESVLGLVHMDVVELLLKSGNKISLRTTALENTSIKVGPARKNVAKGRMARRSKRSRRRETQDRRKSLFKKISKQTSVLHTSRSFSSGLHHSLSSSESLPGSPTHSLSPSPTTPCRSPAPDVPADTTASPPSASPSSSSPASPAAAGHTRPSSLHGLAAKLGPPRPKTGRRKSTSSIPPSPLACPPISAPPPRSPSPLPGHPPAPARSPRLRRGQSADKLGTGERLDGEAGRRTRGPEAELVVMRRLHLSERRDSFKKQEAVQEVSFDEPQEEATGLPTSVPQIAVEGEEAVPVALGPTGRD
Chain of PIK3C3 (Q8NEB9 whole entry): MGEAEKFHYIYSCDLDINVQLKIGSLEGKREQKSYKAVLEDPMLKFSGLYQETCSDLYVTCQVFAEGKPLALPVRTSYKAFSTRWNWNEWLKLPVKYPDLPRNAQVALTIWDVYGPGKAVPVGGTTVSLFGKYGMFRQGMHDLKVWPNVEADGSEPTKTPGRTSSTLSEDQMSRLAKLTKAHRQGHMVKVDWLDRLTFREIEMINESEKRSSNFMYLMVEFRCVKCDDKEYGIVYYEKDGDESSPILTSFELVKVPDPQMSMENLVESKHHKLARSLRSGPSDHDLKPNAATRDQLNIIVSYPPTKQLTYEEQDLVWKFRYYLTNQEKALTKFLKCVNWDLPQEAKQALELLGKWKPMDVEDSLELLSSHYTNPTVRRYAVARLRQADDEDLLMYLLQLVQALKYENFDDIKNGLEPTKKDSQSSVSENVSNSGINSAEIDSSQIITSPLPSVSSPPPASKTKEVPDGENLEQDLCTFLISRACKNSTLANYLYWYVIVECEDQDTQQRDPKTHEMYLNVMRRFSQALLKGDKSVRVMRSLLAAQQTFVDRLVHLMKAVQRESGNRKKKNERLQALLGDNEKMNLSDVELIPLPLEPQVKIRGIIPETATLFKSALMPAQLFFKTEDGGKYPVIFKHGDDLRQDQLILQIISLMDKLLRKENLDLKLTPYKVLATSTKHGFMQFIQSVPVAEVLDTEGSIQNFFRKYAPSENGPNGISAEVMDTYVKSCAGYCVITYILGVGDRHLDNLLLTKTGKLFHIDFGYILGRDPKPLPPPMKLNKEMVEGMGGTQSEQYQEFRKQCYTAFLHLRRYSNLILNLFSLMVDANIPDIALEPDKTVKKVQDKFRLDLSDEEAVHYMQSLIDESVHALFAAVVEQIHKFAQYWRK
Chain of PIP5K3 (Q9Y2I7 whole entry): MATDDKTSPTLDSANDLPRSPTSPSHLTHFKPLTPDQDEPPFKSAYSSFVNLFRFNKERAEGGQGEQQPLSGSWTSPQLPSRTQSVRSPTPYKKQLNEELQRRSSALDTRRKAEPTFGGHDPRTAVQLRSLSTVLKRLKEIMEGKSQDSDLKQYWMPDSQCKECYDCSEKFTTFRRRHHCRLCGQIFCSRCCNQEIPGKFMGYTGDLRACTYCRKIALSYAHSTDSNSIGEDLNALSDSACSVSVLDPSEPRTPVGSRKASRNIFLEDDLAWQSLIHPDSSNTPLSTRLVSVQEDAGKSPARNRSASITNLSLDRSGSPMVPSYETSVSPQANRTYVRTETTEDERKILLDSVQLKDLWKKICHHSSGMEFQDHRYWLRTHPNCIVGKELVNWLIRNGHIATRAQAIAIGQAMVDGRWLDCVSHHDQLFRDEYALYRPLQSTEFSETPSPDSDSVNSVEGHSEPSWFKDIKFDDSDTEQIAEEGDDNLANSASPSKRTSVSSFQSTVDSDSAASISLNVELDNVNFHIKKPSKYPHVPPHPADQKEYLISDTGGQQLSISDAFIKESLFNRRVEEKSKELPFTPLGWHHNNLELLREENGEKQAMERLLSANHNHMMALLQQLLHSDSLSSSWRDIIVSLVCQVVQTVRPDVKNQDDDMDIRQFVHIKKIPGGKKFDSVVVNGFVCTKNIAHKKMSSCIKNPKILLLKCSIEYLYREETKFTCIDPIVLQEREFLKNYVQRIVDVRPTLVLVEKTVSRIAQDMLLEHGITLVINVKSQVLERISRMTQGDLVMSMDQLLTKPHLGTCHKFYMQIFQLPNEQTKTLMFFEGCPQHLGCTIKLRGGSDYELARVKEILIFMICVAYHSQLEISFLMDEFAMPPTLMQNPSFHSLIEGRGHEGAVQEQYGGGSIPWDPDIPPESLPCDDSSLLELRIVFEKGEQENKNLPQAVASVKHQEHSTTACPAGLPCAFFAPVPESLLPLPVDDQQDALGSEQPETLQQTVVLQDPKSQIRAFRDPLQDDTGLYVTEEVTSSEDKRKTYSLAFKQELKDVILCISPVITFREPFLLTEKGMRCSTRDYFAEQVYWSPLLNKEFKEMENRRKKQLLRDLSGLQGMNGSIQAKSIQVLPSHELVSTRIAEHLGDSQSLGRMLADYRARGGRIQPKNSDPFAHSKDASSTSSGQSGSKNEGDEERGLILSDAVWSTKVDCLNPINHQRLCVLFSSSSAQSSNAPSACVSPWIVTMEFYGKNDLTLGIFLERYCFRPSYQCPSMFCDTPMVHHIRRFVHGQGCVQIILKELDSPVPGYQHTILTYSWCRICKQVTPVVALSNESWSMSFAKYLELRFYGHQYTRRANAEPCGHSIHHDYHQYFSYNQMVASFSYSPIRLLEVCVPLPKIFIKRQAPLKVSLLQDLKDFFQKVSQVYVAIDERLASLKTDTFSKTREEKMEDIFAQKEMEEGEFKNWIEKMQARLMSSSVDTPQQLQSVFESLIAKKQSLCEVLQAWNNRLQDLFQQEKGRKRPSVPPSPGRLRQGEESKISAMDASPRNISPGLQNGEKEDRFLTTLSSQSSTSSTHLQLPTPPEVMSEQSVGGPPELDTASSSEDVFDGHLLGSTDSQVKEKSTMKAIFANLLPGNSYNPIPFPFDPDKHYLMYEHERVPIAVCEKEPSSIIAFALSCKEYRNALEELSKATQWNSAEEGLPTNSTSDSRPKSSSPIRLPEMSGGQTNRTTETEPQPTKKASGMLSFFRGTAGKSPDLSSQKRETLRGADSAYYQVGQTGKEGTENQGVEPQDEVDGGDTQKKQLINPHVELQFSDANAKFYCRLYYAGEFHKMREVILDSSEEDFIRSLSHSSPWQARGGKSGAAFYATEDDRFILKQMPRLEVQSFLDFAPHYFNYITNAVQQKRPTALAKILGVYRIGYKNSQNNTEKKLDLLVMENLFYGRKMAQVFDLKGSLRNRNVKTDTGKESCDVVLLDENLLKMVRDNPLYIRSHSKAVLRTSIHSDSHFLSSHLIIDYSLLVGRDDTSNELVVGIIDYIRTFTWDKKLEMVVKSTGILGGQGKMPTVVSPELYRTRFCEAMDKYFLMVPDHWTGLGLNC
Chain of CaMK1a (Q14012 whole entry): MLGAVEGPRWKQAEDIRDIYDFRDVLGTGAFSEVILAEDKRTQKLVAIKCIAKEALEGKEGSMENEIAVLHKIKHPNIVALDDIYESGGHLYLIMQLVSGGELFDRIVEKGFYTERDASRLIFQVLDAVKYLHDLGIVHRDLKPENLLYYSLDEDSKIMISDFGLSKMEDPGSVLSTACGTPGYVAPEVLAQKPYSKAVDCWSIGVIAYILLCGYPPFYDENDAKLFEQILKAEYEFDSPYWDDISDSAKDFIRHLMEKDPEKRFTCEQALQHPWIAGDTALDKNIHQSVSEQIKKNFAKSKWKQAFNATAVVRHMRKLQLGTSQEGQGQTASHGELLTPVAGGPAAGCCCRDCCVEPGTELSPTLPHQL

## Cn1cc(-c2c[nH]c3ncnc(N4CCOCC4)c23)cc1C#N [Example 217, 1-methyl-4-[4-(morpholin-4-yl)-7H-pyrrolo[2,3-d]pyrimidin-5-yl]-1H-pyrrole-2-carbonitrile]
PIK3CB
  inhibition at 0.1 µM: -5.3%
  inhibition at 1 µM: -29.7%
CDC2
  inhibition at 0.1 µM: 28.7%
  inhibition at 1 µM: 24.4%
RSKL1 domain1
  inhibition at 0.1 µM: -15.9%
  inhibition at 1 µM: -30.6%
LYN
  inhibition at 0.1 µM: 8.3%
  inhibition at 1 µM: -19.2%
PIP4K2C; PIP4K2C (first line of two)
  inhibition at 0.1 µM: 6.2%
  inhibition at 1 µM: -11.9%
PIP4K2C; PIP4K2C (second line of two)
  inhibition at 0.1 µM: -4.7%
  inhibition at 1 µM: 4%
IRE1
  inhibition at 0.1 µM: 3.2%
  inhibition at 1 µM: -19.5%
AKT1
  inhibition at 0.1 µM: 5.5%
  inhibition at 1 µM: -3.6%
MAST3
  inhibition at 0.1 µM: -11.7%
  inhibition at 1 µM: 0.4%
HPK1
  inhibition at 0.1 µM: -13.7%
  inhibition at 1 µM: 1.7%
JAK2 domain2
  inhibition at 0.1 µM: 4.8%
  inhibition at 1 µM: -6.4%
SMG1
  inhibition at 0.1 µM: 1.5%
  inhibition at 1 µM: -6.1%
ACK
  inhibition at 0.1 µM: -9.8%
  inhibition at 1 µM: -19.5%
MARK3
  inhibition at 0.1 µM: 16.2%
  inhibition at 1 µM: 18.4%
PCTAIRE2, PCTAIRE3; 0.1 μM
  percent inhibition: −2.6%
PCTAIRE2, PCTAIRE3; 1 μM
  percent inhibition: 15.1%
[1]
  IC50: 6.37 nM
IKKe
  inhibition at 0.1 µM: -3%
  inhibition at 1 µM: 20.4%
FGR
  inhibition at 0.1 µM: -1.2%
  inhibition at 1 µM: -0.5%
JAK1
  inhibition at 0.1 µM: -3%
  inhibition at 1 µM: 11.4%
PIK3C3
  inhibition at 0.1 µM: 19.9%
  inhibition at 1 µM: 10.2%
IKKb
  inhibition at 0.1 µM: 7.1%
  inhibition at 1 µM: 6.5%
Wnk1, Wnk2, Wnk4; 0.1 μM
  percent inhibition: 2.2%
Wnk1, Wnk2, Wnk4; 1 μM
  percent inhibition: −5.4%
AMPKa1, AMPKa2; 0.1 μM
  percent inhibition: 5.7%
AMPKa1, AMPKa2; 1 μM
  percent inhibition: 16.5%
PIP5K3
  inhibition at 0.1 µM: 16%
  inhibition at 1 µM: 2.5%
[2]; 0.1 μM
  percent inhibition: −1.2%
[2]; 1 μM
  percent inhibition: 7.7%
TAO1, TAO3; 0.1 μM
  percent inhibition: −9.7%
TAO1, TAO3; 1 μM
  percent inhibition: −16.5%
AMPKa1
  inhibition at 0.1 µM: 27.2%
  inhibition at 1 µM: 48.8%
CaMK1a
  inhibition at 0.1 µM: -5.4%
  inhibition at 1 µM: -7.1%
STLK5
  inhibition at 0.1 µM: -6.9%
  inhibition at 1 µM: -11.5%
MLKL
  inhibition at 0.1 µM: 2.5%
  inhibition at 1 µM: -3.3%
PITSLRE; 0.1 μM
  percent inhibition: −6.7%
PITSLRE; 1 μM
  percent inhibition: 6.6%
IKKa
  inhibition at 0.1 µM: -2.5%
  inhibition at 1 µM: -3.7%
MAP2K3
  inhibition at 0.1 µM: 2.5%
  inhibition at 1 µM: 3.3%
IKKe, TBK1; 0.1 μM
  percent inhibition: 2.3%
IKKe, TBK1; 1 μM
  percent inhibition: 13.3%
IRAK1; IRAK1, 0.1 μM
  inhibition at 0.1 µM: -1.7%
IRAK1; IRAK1
  inhibition at 1 µM: 7.5%

## Cn1cc(-c2c[nH]c3ncnc(N4CCOCC4)c23)cn1 [Example 1, 5-(1-Methyl-1H-pyrazol-4-yl)-4-(morpholin-4-yl)-7H-pyrrolo[2,3-d]pyrimidine]
PIK3CB
  inhibition at 0.1 µM: -2.6%
  inhibition at 1 µM: -29.8%
CDC2
  inhibition at 0.1 µM: -4%
  inhibition at 1 µM: 14.7%
RSKL1 domain1
  inhibition at 0.1 µM: 5.5%
  inhibition at 1 µM: -0.2%
LYN
  inhibition at 0.1 µM: 3.8%
  inhibition at 1 µM: 7.8%
PIP4K2C; PIP4K2C (first line of two)
  inhibition at 0.1 µM: 1.4%
  inhibition at 1 µM: -1.4%
PIP4K2C; PIP4K2C (second line of two)
  inhibition at 0.1 µM: -48%
  inhibition at 1 µM: 0.9%
IRE1
  inhibition at 0.1 µM: -1.3%
  inhibition at 1 µM: -8%
AKT1
  inhibition at 0.1 µM: 11.3%
  inhibition at 1 µM: 18.8%
MAST3
  inhibition at 0.1 µM: 9%
  inhibition at 1 µM: -6.7%
HPK1
  inhibition at 0.1 µM: -9.7%
  inhibition at 1 µM: -14.9%
JAK2 domain2
  inhibition at 0.1 µM: 13.8%
  inhibition at 1 µM: 16.7%
SMG1
  inhibition at 0.1 µM: -1.3%
  inhibition at 1 µM: -19.2%
ACK
  inhibition at 0.1 µM: 5.2%
  inhibition at 1 µM: -8%
MARK3
  inhibition at 0.1 µM: 1%
  inhibition at 1 µM: 29.1%
PCTAIRE2, PCTAIRE3; 0.1 μM
  percent inhibition: 7.5%
PCTAIRE2, PCTAIRE3; 1 μM
  percent inhibition: −2.5%
[1]
  IC50: 13 nM
IKKe
  inhibition at 0.1 µM: 2.6%
  inhibition at 1 µM: 17.7%
FGR
  inhibition at 0.1 µM: 12.9%
  inhibition at 1 µM: 4.6%
JAK1
  inhibition at 0.1 µM: 15%
  inhibition at 1 µM: 54.2%
PIK3C3
  inhibition at 0.1 µM: 23.3%
  inhibition at 1 µM: 4.8%
IKKb
  inhibition at 0.1 µM: 16.1%
  inhibition at 1 µM: 10.8%
Wnk1, Wnk2, Wnk4; 0.1 μM
  percent inhibition: −15%
Wnk1, Wnk2, Wnk4; 1 μM
  percent inhibition: −13.5%
AMPKa1, AMPKa2; 0.1 μM
  percent inhibition: 10.8%
AMPKa1, AMPKa2; 1 μM
  percent inhibition: 49.7%
PIP5K3
  inhibition at 0.1 µM: 1.9%
  inhibition at 1 µM: 15%
[2]; 0.1 μM
  percent inhibition: −18%
[2]; 1 μM
  percent inhibition: 4.9%
TAO1, TAO3; 0.1 μM
  percent inhibition: −24%
TAO1, TAO3; 1 μM
  percent inhibition: −14.9%
AMPKa1
  inhibition at 0.1 µM: 1.5%
  inhibition at 1 µM: 27%
CaMK1a
  inhibition at 0.1 µM: 2%
  inhibition at 1 µM: 6.3%
STLK5
  inhibition at 0.1 µM: -1.5%
  inhibition at 1 µM: -46.5%
MLKL
  inhibition at 0.1 µM: 1.6%
  inhibition at 1 µM: 8.4%
PITSLRE; 0.1 μM
  percent inhibition: −13%
PITSLRE; 1 μM
  percent inhibition: −3.2%
IKKa
  inhibition at 0.1 µM: -20%
  inhibition at 1 µM: -40.5%
MAP2K3
  inhibition at 0.1 µM: 14.4%
  inhibition at 1 µM: -9%
IKKe, TBK1; 0.1 μM
  percent inhibition: 1.5%
IKKe, TBK1; 1 μM
  percent inhibition: 23.7%
IRAK1; IRAK1
  inhibition at 1 µM: -9.1%
IRAK1
  inhibition at 0.1 µM: -13.8%
